Test results reported in PMC8069832, “New Amides and Phosphoramidates Containing Selenium: Studies on Their Cytotoxicity and Antioxidant Activities in Breast Cancer” (Antioxidants, 2021).

Experiments:
[1] = DPPH radical scavenging assay; settings: 0.03 mg/mL, after 30 min
Method: The DPPH (1,1-diphenyl-2-picrylhydrazyl radical) assay measures the hydrogen donation ability of the antioxidant to convert the stable DPPH free radical into 1,1-diphenyl-2-(2,4,6-trinitrophenyl)-hydrazine. After radical reaction with the compounds, a decrease in the absorbance was detected at 517 nm, which is accompanied by a change of color from violet to light-yellow. The target compounds were dissolved in methanol to make 1 mg/mL stock solutions, which were diluted to five concentrations as test samples. Ascorbic acid was used as a standard, and the experiment was carried out on 96-well plates. The DPPH solution was prepared at a 100 µM concentration. For each test, 100 µL of DPPH solution was added to 100 µL of methanolic solution containing the tested derivatives, and the absorbance was determined at different time points. All the measurements were carried out in triplicate. Results were expressed as the percentage of the radical scavenged, calculated using the following formula:(1) % DPPH radical scavenging=Acontrol − Asample/Acontrol × 100 where Acontrol refers to the absorbance of the negative control, and Asample refers to the absorbance of the tested compounds. Results are expressed as a percentage of DPPH radical scavenged ± SEM.
. Ascorbic acid and Trolox were used as radical scavenger gold standards. […]. No correlation was found for either structure–radical scavenging activity or antitumor–radical scavenging activity, except for compound I.2f, one of the selected cytotoxic agents. To further confirm this antioxidant activity, three compounds (I.1e, I.1g and I.2i) were also evaluated as DPPH radical scavengers at a lower concentration of 0.003 mg/mL (Figure 3B).

MCF-7 [2] = assay: Cell death (subdiploid cells), Apo-Direct kit TUNEL flow cytometry; assay type: cell-based, human; settings: 24 h, increasing doses (I.1f 10 to 80 µM)
Method: (§1) For the MCF-7 cell line, both cell cycle analysis and the cell death percentage were determined using the Apo-Direct kit (BD Pharmingen) based on the TUNEL technique, according to the manufacturer’s instructions. Cells were seeded in 25 cm^2 flasks (3 × 10^6 for 24 h of treatment, 2 × 10^6 for 48 h and 10^6 for 72 h) treated with DMSO (negative control), 6 µM of camptothecin (positive control) and different concentrations of I.1f, I.2f and II.2d.
(§2) After treatment, cells were collected and fixed with 1% paraformaldehyde (Sigma) in PBS (pH = 7.4), incubated in ice for 40 min, collected by centrifugation, washed with PBS and incubated with 70% ethanol for 30 min at −20 °C. After fixation, cells were washed twice with PBS and incubated for 1 h at 37 °C with FITC dUTP-DNA Labeling Solution. Cells were then rinsed and incubated in the dark for 30 min at room temperature with PI/RNase staining buffer before being analyzed by flow cytometry (Coulter Epics XL, Beckman Coulter Flow cytometer). Then, cells were treated with compounds I.1f (80 µM), I.2f (30 µM) and II.2d (5 µM) at different times (from 8 to 72 h) following the same methodology.
(§3) Apoptosis and cell cycle arrest are typical mechanisms of action for many anticancer drugs, including selenocompounds [34, 35, 36]. In a first approach, the effect of the selected compounds on cell cycle progression and the induction of apoptosis was studied in MCF-7 cell cultures. Analyses were performed by flow cytometry using the Apo-Direct kit, based on the TUNEL technique under the conditions described by the manufacturer. The cells were treated with the corresponding compound at different concentrations and time points. Camptothecin was used as a positive control at 6 µM.

MCF-7 [3] = assay: Cell cycle phase distribution by flow cytometry; assay type: cell-based, human; settings: 24 h, different doses
Method: as §1, §2, §3
To further understand the mechanism of action of these potent compounds, their effects on cell cycle distribution in MCF-7 were studied by flow cytometry. This assay was carried out with different concentrations (Figure 6) and different time points (Figure 7).

MCF-7 [4] = assay: Western blot of autophagy and apoptosis markers; assay type: cell-based, human; settings: for Beclin-1 and LC3B levels / Phosphorylation of AMPK and JNK / SQSTM1/p62 (autophagic flux): I.1f 80 µM 48 h, I.2f 30 µM 24 h
MCF-7 [5] = settings: read-out: GI50 MCF-7; 48 h, average ± SEM

## N#C[Se]c1ccc(NC(=O)c2ccc(C(F)(F)F)cc2)cc1 [I.2f]
[1]
  DPPH activity inhibition: greater than 35%
MCF-7 [2]
  Cell death (subdiploid cells): provoked a significant increase in the number of death cells
MCF-7 [3]
  Cell cycle phase distribution: increased the number of cells in the S phase dose-dependently
MCF-7 [4]
  Beclin-1 and LC3B levels: increased levels
  Phosphorylation of AMPK and JNK: induced JNK and AMPK phosphorylation
  SQSTM1/p62 (autophagic flux): downregulated
MCF-7 [5]
  GI50: 900 nM

## CCOP(=O)(Nc1ccc([Se]C#N)cc1)OCC [II.2d]
MCF-7 [2]
  Cell death (subdiploid cells): provoked a significant increase in the number of death cells
MCF-7 [3]
  Cell cycle phase distribution: arrested them in G0/G1 phase
MCF-7 [4]
  BAX, p21, p53 levels: Significantly increased levels
  Bcl-2 levels: decreased levels
MCF-7 [5]
  GI50: 900 ± 100 nM

## O=C(Nc1ccc([Se][Se]c2ccc(NC(=O)c3ccc(C(F)(F)F)cc3)cc2)cc1)c1ccc(C(F)(F)F)cc1 [I.1f]
MCF-7 [2]
  Cell death (subdiploid cells): did not stimulate cell death
MCF-7 [3]
  Cell cycle phase distribution: increased the number of cells in the S phase dose-dependently
MCF-7 [4]
  Beclin-1 and LC3B levels: increased levels
  Phosphorylation of AMPK and JNK: induced JNK and AMPK phosphorylation
  SQSTM1/p62 (autophagic flux): downregulated
